Results taken from patent US12479895B2, “C-terminal CDNF and MANF fragments, pharmaceutical compositions comprising same and uses thereof” (MyNeuroCure Oy, priority 2018, dated 2025).

Legend:
[1] = tested on: dopamine neurons; test: Survival of TH-positive dopamine neurons in dissociated midbrain floor cultures; assay type: cell-based, mouse; conditions: 5 days; for survived neurons as % compared to neurons grown in the presence of GDNF: Table 3B (FIG. 17), AVG; for protection of dopaminergic neurons in culture (result in words): added to the culture medium, TH-positive neurons counted
Procedure: To study the dopamine neurons (Yu et al., 2008; Yu and Arumae, 2008), the midbrain floors were dissected from the ventral mesencephali of 13.5-d-old NMRI strain mouse embryos. Tissues were incubated with 0.5% trypsin (ICN Biomedical), then mechanically dissociated using a large fire-polished Pasteur pipette. The neurons were grown on the poly-L-ornithine-coated (Sigma) 96-well culture plates in DMEM/F12 medium (Invitrogen) containing N2 supplement (Invitrogen) in the presence or absence of GDNF (100 ng/ml) or with CDNF, MANF, C-CDNF and C-MANF polypeptides at different concentrations for five days. Same amount of the neurons were plated to each well at the beginning of the experiments. The cultures without added neurotrophic factors served as the negative control. As the midbrain cultures contain several neuronal types, the cultures were fixed and immunostained with the antibodies to tyrosine hydroxylase (TH) (Millipore), a specific marker for the dopaminergic neurons. Images of each well were scanned by CellInsight™ and immunopositive neurons were counted by CellProfiler and CellProfiler analyst software. Data are expressed as a percentage of GDNF-maintained TH-positive neurons. All experiments were repeated at least three times on the independent cultures. The results were expressed as the mean the SEM and were tested for the significance by either one-way ANOVA and Tukey's post hoc test or by two-tailed Student's t-test. The null hypothesis was rejected at P≤0.05.

[2] = tested on: ER stressed SCG neurons; test: Survival of tunicamycin-treated (ER stressed) SCG sympathetic neurons after microinjection; assay type: cell-based, mice; conditions: tunicamycin 2 μM; for survived neurons as % compared to neurons grown in the presence of NGF: Table 1B (FIG. 16), microinjected into cytoplasm, counted after 3 days, CDNF (400)
Procedure: Non-neuronal cells were removed by extensive preplating. Almost pure neurons were cultured in polyornithine/laminin (Sigma)-coated 35-mm plastic dishes in the small-size standard microislands in the Neurobasal medium and B27 supplement (Invitrogen/Gibco) in the presence of 30 ng/ml mouse nerve growth factor (NGF) (Promega) for 5-6 days. NGF was deprived by extensive washing and addition of the function-blocking anti-NGF antibodies (Roche). The neurons were pressure-microinjected with special neuronal microinjection equipment (Hellman et al., 2011; Hamner et al., 2001; Lindholm et al., 2002; Sun et al., 2001; Yu et al., 2003)(Sun et al., 2001; Sun et al., 2003). For the survival assay, all neurons on the microislands were counted in the beginning (initial number) and the end (three days) of the experiment and expressed as % of initial.
Microinjection of the sympathetic neurons was performed as described earlier (Yu, L. Y., Jokitalo, E., Sun, Y. F., Mehlen, P., Lindholm, D., Saarma, M., and Arumae, U. (2003) J Cell Biol. 163, 987-997). Plasmids for CDNF have been described earlier. Briefly, newborn mouse SCG neurons were grown with NGF (Promega) for 5-6 days then the nuclei were microinjected with the expression plasmids for full-length (FL)-CDNF and C-CDNF together with a reporter plasmid for enhanced green fluorescent protein (EGFP), using vector concentration of 10 ng/ul in each experiment. […] For protein microinjection, recombinant full length (FL)-CDNF, C-CDNF proteins in PBS at 200 ng/ul were microinjected directly into the cytoplasm together with fluorescent reporter Dextran Texas Red (MW 70000 Da) (Invitrogen, Molecular Probes) that facilitates identification of the successfully injected neurons. Next day tunicamycin (2 μM) was added, and after 3 days the living fluorescent neurons were counted. Living fluorescent (EGFP-expressing or Dextran Texas Red-containing) neurons were “blindly” counted three days later and expressed as percent of initial living fluorescent neurons counted 2-3 hours after microinjection. The experiments with plasmids were repeated on independent cultures 5 times for plasmid experiment, whereas four independent protein injection experiments were performed. On average, 50-80 neurons were successfully injected per experimental group. The results were expressed as the mean±the SEM. Data of each experimental group was compared with control plasmid PCR3.1 (vector) or PBS (in the protein injection experiments) by one-way ANOVA and post hoc Dunnett's t test. The null hypothesis was rejected at p<0.05.

Sequence	survived neurons as % compared to neurons grown in the presence of GDNF ([1]; 1 ng/ml)	survived neurons as % compared to neurons grown in the presence of GDNF ([1]; 10 ng/ml)	survived neurons as % compared to neurons grown in the presence of GDNF ([1]; 100 ng/ml)	survived neurons as % compared to neurons grown in the presence of GDNF ([1]; 1000 ng/ml)	survived neurons as % compared to neurons grown in the presence of NGF ([2]; exp1)	survived neurons as % compared to neurons grown in the presence of NGF ([2]; exp2)	survived neurons as % compared to neurons grown in the presence of NGF ([2]; exp3)	protection of dopaminergic neurons in culture (result in words) [1]	rescue of ER stressed SCG neurons (result in words) ([2]; protein or peptide microinjected into the cytoplasm, living fluorescent neurons counted after 3 days)
TLDLASVDLRKMRVAELKQILHSWGEESRACAEKTDYVNLIQELAPKYA (C-CDNF peptide with single amino acid substitution) [pep9]	62.74 % GDNF	69.29 % GDNF	71.62 % GDNF	67.12 % GDNF	41.23 % NGF	44.00 % NGF	44.44 % NGF	–	–
TLDLASVDLRKMRVAELKQILHSWGEECRARACAEKTDYVNLIQELAPKYA (Mutated C-CDNF peptide) [pep11]	59.60 % GDNF	60.76 % GDNF	69.28 % GDNF	70.22 % GDNF	46.25 % NGF	48.61 % NGF	44.64 % NGF	–	–
TLDLASVDLRKMRVAEPKQILHSWGEECRACAEKTDYVNLIQEPAPKYA (Mutated C-CDNF peptide) [pep14]	71.49 % GDNF	84.24 % GDNF	85.71 % GDNF	82.81 % GDNF	55.76 % NGF	34.32 % NGF	48.43 % NGF	best protective effect	–
TLDLASVDLRKMRVAELKQILHSWGEECRACAEKTDYVNLIQEPAPKYA (Mutated C-CDNF peptide) [pep13]	71.07 % GDNF	86.81 % GDNF	88.07 % GDNF	85.36 % GDNF	77.41 % NGF	72.46 % NGF	80.39 % NGF	best protective effect	rescue
